The target of one data set is FXa (Homo sapiens, UniProt P00742). In words: Factor Xa inhibition (FXa-IC50), Table 3 'Affinity to Receptors'.
A further data set deals with TF/FVIIa (Homo sapiens, UniProt P08709). In words: TF/FVIIa inhibition (TF/FVIIa-IC50), Table 3 'Affinity to Receptors'.

SMILES strings stand for the structures. Counter-ions that a name gives are not always drawn. Some results are limits rather than exact numbers.

TF/FVIIa, sequence (P08709 213-466 limits assumed): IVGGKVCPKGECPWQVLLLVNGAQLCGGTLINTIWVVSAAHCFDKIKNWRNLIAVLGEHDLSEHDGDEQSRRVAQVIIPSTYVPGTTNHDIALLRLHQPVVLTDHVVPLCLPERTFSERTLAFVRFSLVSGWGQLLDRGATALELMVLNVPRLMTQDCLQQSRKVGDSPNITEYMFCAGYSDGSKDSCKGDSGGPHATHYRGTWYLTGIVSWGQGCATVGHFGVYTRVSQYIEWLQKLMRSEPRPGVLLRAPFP
TF/FVIIa, sequence (P08709 61-212 limits assumed): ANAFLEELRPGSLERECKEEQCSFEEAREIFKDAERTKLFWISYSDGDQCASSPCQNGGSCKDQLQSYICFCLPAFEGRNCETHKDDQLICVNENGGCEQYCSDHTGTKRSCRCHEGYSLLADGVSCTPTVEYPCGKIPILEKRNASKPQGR
TF/FVIIa, sequence (P13726 33-295 partner): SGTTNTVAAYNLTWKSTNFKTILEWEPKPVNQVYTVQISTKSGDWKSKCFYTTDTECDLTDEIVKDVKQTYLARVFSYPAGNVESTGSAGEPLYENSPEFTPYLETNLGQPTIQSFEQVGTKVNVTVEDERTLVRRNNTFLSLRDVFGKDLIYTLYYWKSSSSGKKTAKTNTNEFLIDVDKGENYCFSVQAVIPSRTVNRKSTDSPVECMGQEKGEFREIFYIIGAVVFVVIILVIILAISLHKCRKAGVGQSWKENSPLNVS
FXa, sequence (P00742 235-488 limits assumed): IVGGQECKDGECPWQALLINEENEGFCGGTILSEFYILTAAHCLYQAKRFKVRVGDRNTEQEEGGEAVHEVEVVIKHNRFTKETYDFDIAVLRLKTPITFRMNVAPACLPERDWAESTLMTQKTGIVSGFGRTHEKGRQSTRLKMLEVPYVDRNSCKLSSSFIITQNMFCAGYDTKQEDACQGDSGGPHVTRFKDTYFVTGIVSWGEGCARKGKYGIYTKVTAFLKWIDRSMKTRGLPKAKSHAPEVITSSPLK
FXa, sequence (P00742 41-179 limits assumed): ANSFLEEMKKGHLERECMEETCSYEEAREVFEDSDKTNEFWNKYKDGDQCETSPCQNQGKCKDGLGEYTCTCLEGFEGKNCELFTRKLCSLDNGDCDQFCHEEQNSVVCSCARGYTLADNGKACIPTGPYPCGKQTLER
From the text for FXa: The inhibition of factor Xa by the compounds according to the invention and the measurement of the anticoagulant and antithrombotic activity can be determined by conventional in-vitro or in-vivo methods.

Compound `Cc1cc(NC(=O)NN(c2ccccc2)c2cccc(CN)c2)ccc1N1CCCCC1=O.Cl` came in with a melting point of 172 to 173 °C.

Compound `Cc1cc(NC(=O)N(Nc2cccc(C(=N)N)c2)c2ccccc2)ccc1N1CCCCC1=O.Cl` [Compound 11, 1-(3-amidinophenyl)-4-[3-methyl-4-(2-oxopiperidin-1-yl)phenyl]-2-phenylsemicarbazide, hydrochloride] returned a melting point of more than 300 °C. The midpoint of inhibition against FXa, the IC50, lay at 8.6 nM. The compound also gave an IC50 against TF/FVIIa of 5.1 nM. In turn, `Cc1cc(NC(=O)NN(c2ccccc2)c2cccc(C#N)c2)ccc1N1CCCCC1=O` [Compound 6, 1-(3-cyanophenyl)-4-[3-methyl-4-(2-oxopiperidin-1-yl)phenyl]-1-phenylsemicarbazide] registered a melting point of 161 to 162 °C. `N#Cc1cccc(NN(C(=O)Nc2ccc(N3CCCCC3=O)cc2)c2ccccc2)c1` [5″, 1-(3-cyanophenyl)-4-[4-(2-oxopiperidin-1-yl)phenyl]-2-phenylsemicarbazide] had a melting point of 239 to 241 °C. On to `Cc1cc(NC(=O)NN(c2ccccc2)c2cccc(C(=N)N)c2)ccc1N1CCCCC1=O.Cl` [Compound 10, 1-(3-amidinophenyl)-4-[3-methyl-4-(2-oxopiperidin-1-yl)phenyl]-1-phenylsemicarbazide, hydrochloride], for which the melting point is more than 300 °C. For the same compound, the IC50 on FXa is 16 nM. Besides, it took 9.8 nM to reach half-maximal inhibition against TF/FVIIa (IC50). Compound `Cc1cc(NC(=O)NN(c2ccccc2)c2cccc(C#N)c2)ccc1N1CCOCC1` [5′, 1-(3-cyanophenyl)-4-[3-methyl-4-(morpholin-4-yl)phenyl]-1-phenylsemicarbazide] had a melting point of 115 to 116 °C. Take `N=C(N)c1cccc(NN(C(=O)Nc2ccc(N3CCOCC3=O)c(Cl)c2)c2ccccc2)c1` [Compound 4.AA, 1-(3-amidinophenyl)-4-[3-chloro-4-(3-oxomorpholin-4-yl)phenyl]-2-phenylsemicarbazide, hydrochloride]: the IC50 against FXa was 20 nM; against TF/FVIIa it was 27 nM. Compound `Cc1cc(NC(=O)N(Nc2cccc(CN)c2)c2ccccc2)ccc1N1CCCCC1=O.Cl` [Compound 13, 1-(3-aminomethylphenyl)-4-[3-methyl-4-(2-oxopiperidin-1-yl)phenyl]-2-phenylsemicarbazide, hydrochloride] showed a melting point of 95 to 97 °C. In addition, 130 nM corresponded to half-maximal inhibition against FXa (IC50). Besides, half-maximal inhibition on TF/FVIIa (IC50) required 170 nM.

The term melting point denotes the temperature of the solid-liquid transition. As a reminder, the IC50 is the concentration needed to halve the response being measured. Lower therefore signals greater potency.
